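All cell lines were grown in 96-well plates and treated with compound for 48 hours. TGI: total growth inhibition.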 A value given as a limit tells only on which side of the number the result lay.

Holding throughout (assay): NCI tumour cell line growth inhibition, 48 h
The subject of test [1] is OVCAR-4 ovarian.
Test [2] relates to OVCAR-5 ovarian.
For test [3], the system named is NCI-H23 lung.
The test system of test [4] is LOX IMVI melanoma.
Test [5] concerns TK-10 renal.
Test [6] deals with OVCAR-8 ovarian.
In test [7] the test system is SW-620 colon.
Test [8] relates to BT-549 breast.
The test system of test [9] is CAKI-1 renal.

`CC(=O)OCC(=O)OC[C@H](OCc1ccccc1)[C@@H]1[C@H](OC(C)=O)C(=O)N1Cc1ccccc1`: the TGI in test [1], in [2], in test [3], in test [4], in test [5] and in [6] was over 100 µM each time. In test [7], this compound returned a TGI of over 100 µM.

Consider `COC(=O)/C=C1/OC(c2ccccc2)=C(C)C1=O`, for which the TGI in test [2] was 30.6 µM; in [3] it was 43.6 µM; in [4], 2.72 µM; in test [8], 8.45 µM; in [9] it was 14.8 µM; in test [5], 29.1 µM. Also, the TGI in test [6] worked out at 81.6 µM; in test [7], 5.58 µM.

For `COc1ccc(OC)c2c1C=CC(Br)=CC2`, the TGI in test [1] was over 1 µM; in [3], over 1 µM; in test [4] it was 0.302 µM; in [8], 0.835 µM; in test [9], 0.913 µM; in test [5], over 1 µM. In addition, the TGI in test [6] and in [7] was over 1 µM throughout.

As to `Cc1ccc2nc(C(C)C)c(=O)[nH]c2c1`, the TGI in test [1], in test [2], in [3], in test [8], in [9] and in test [5] was over 100 µM in each case. The TGI in test [6] and in [7] was over 100 µM throughout.

Turning to `COc1ccccc1C(O)[C@@H]1C[C@@H]2[C@H]3CC[C@@](C)([C@@H]2O1)C3(C)C` (some centres not stated), the TGI in [2] turned out to be 38.6 µM; in [3] it was 50.5 µM; in test [4], 35.8 µM; in [8], 42.2 µM; in test [9], 56.4 µM; in test [5], 50.7 µM. The figures for the TGI in [6] and in test [7] were 38.9 µM and 37.9 µM, respectively.

For `Fc1ccc2c3c([nH]c2c1)CCN(Cc1ccccc1)C3`, the TGI came to 56.1 µM in test [1]; 47.9 µM in test [2]; 42.4 µM in test [3]; 33.5 µM in [4]; 39.6 µM in [6]; 40 µM in [7].

For `COc1cccc(C2c3cc4c(cc3OC(NNS(=O)(=O)c3ccc(C)cc3)C2C)OCO4)c1OC` (configuration not stated), the TGI was 74.2 µM in test [2]; over 100 µM in test [3]; 5.15 µM in [4]; 36 µM in [8]; 8.56 µM in test [9]; 49.8 µM in [5]. Besides, the TGI in test [6] and in test [7] was over 100 µM each time.

Turning to `CC(=O)OCC1OC(n2c3c(c(-c4ccc(Cl)cc4)c(C#N)c2=S)CCCC3)C(OC(C)=O)C(OC(C)=O)C1OC(C)=O` (configuration not stated), the TGI in test [1], in test [2], in test [3], in [4], in [5] and in test [6] was over 100 µM throughout.

In the case of `CN(C)N1C(=O)S/C(=C\c2ccc([N+](=O)[O-])cc2)C1=O`, the TGI in test [1], in [2], in test [3], in test [4], in test [9] and in test [5] was over 100 µM in each case. In addition, the TGI in test [6] is over 100 µM.

Take `Cc1cc(=O)oc2cc(OCC(O)COC(C)C)ccc12` (configuration not stated): the TGI in test [1], in test [2], in test [3], in test [4], in test [9] and in test [5] was over 100 µM throughout. Besides, the TGI in [6] and in [7] was over 100 µM in each case.

Consider `C=CC1CN(C(=O)OCC)N(C(=O)OCC)C1CCc1ccccc1` (configuration not stated), for which the TGI in [1], in test [2], in [3], in test [4], in [9] and in test [5] was over 100 µM each time. In test [6], the TGI is over 100 µM.

Take `CC(=O)NC(NCCN)(c1ccccc1)c1ccccc1`: the TGI in test [1], in test [2], in [3], in test [4], in test [5] and in [6] was over 100 µM in each case. This compound registered a TGI in test [7] of over 100 µM.

For `OC(CN(CCCl)CCCl)C(O)C(O)C(O)CN(CCCl)CCCl` (configuration not stated), the TGI in test [2], in test [3], in test [4], in [8], in test [9] and in [5] was over 100 µM in each case. The TGI in test [6] and in test [7] was over 100 µM in each case.

For `CCOP(=O)(OCC)C(NC(=O)C(C(F)(F)F)C(F)(F)F)c1ccccc1` (configuration not stated), the TGI in test [1], in test [2], in test [3], in [4], in test [9] and in test [5] was over 100 µM throughout. Besides, the TGI in [6] and in [7] was over 100 µM in each case.

`COc1cccc(C2SC(N)=Nc3c2c(C)nn3C(=O)Cc2ccccc2)c1` (configuration not stated): the TGI in test [3], in test [4], in test [8], in test [9], in test [5] and in [6] was over 100 µM throughout. The compound further yielded a TGI in [7] of over 100 µM.

Regarding `N[C@@H]1CCN(c2c(F)cc3c(=O)c(C(=O)O)cn4c3c2Oc2cc3c(ccc5ccccc53)cc2-4)C1`, the TGI in [1] is over 100 µM; in [2] it was 97 µM; in test [3], over 100 µM; in [4], over 63.7 µM; in [8], over 100 µM; in test [9] it was over 77.5 µM. Also, the figures for the TGI in test [6] and in [7] were 18.1 µM and over 100 µM, respectively.

For the compound `CSc1ccc(Nc2cc(=O)[nH]c(=O)[nH]2)cc1`, the TGI in test [1], in [2], in test [3], in test [4], in test [8] and in test [9] was over 100 µM in each case. The TGI in test [6] and in test [7] was over 100 µM in each case.

Source of the values: PubChem BioAssay (NCI).
